Consider four compounds from patent US12403115B2, “Asymmetric synthesis and uses of compounds in disease treatments” (Zhejiang Jiachi Development Pharmaceuticals LTD., priority 2017, dated 2025).

For data set [1], the system named is OVX female mice. Put plainly: OVX mice: TG accumulation in liver (H&E sections, liver TG). The format is in vivo. Conditions: given by food. The method, then:
(§1) In this Example, studies have been shown the estrogenic effects of α- and β-anordrins on estrogen-modulated metabolic signaling and tissue atrophy. The ovaries of 7 week old mice were surgically excised. One week post surgery, the mice were given isoflavone, α-anordrin or β-anordrin by food. Body mass, blood glucose and food intake were measured monthly. After three months. Mice were sacrificed. The leg and spine bone, liver, uterus and vagina were harvested.
(§2) The ovaries of 6 week old mice were excised by surgery. 3 days post surgery drugs were administered by gastric tract injection every day or mixed with food.
The error was corrected by using internal standard controls.

Another data set has as its system mice bone. Put plainly: Anastrozole-induced osteoporosis in mice by micro-CT (BMD, BV/TV, Tb.N). It is filed as in vivo. As to conditions: for inhibition of anastrozole-induced osteoporosis (micro-CT): food containing drug plus equal amount of anastrozole, 6 months. The source says:
(§3) Aromatase inhibitors were administrated to ER positive breast in post-menopausal women. […] It was administrated to ER positive breast cancer in post menopausal women. […] Vulvovagina atrophy usually results in infection of vagina and urinary tract. As an example, we tested whether α-anordrin or β-anordrin eliminates anastrozole-induced uterus and vulvovagina atrophy, and osteoporosis. […] Mice were then sacrificed to harvest vagina, leg and spine bone. The tissues were fixed in paraformaldehyde.
(§4) Thighbone was fixed in 1×DPBS containing 3% formaldehyde for two weeks. The fixation solution was exchanged after one week. The density of thighbone was measured by Siemens Inveon Micro-CT. Inveon Research Workplace (IRW) was used to analyze the HU2000 value at the following measurement conditions: 80 KVP, […], 1500 ms exposure time; CCD Readout installation: 2048axial, 2048 binning; FOV Transaxial: 19.03 mm, axial: 19.03 mm, pixels size: 9.29 μm.

For data set [2], the system named is OVX female mice. Description: OVX mice: uterus atrophy (uterine wet mass, H&E sections). It is filed as in vivo. Conditions: three months. How it is done: as §1, §2
The test system of the next data set is mouse vagina. Put plainly: Anastrozole-induced vagina atrophy in mice (vagina wet mass, H&E sections). It is filed as in vivo. As to conditions: food containing drug plus equal amount of anastrozole, 6 months.
Excerpt: as §3
(§5) Vagina was cut at the middle site. Both uterine site and vulvovaginal site were embedded in paraffin at the same direction for H&E section preparation. The thickness of vulvovaginal wall was measured from 40× magnification images of Paraffin-embedded H&E mice vagina sections.

The subject of data set [3] is OVX female mice. Description: OVX mice: vulvovagina atrophy (vagina wet mass, H&E sections, thickness of vulvovagina wall). As to conditions: given by food, three months. The format is in vivo. The method, then:
as §1, §2, §5

Data set [4] concerns OVX female mice. Description: OVX mice: blood glucose, blood TG, body mass and food uptake. The format is in vivo. How it is done:
as §1
glucose concentration in medium or total blood from mouse tail was measured using glucose assay kits following manufacturer's instructions (Yicheng, Beijing).
as §2

The subject of data set [5] is OVX female mice. Description: OVX mice: osteoporosis by micro-CT (BMD, BV/TV). The format is in vivo. As to conditions: for prevention of osteoporosis (micro-CT): OVX mice, given by food, three months. The method, then: as §1, §2, §4
Another data set deals with mice uterus EECs. How it is done: (§6) Tamoxifen was the first FDA-approved drug for breast cancer patients with positively expressed ER. […] We further tested whether α-anordrin or β-anordrin eliminates tamoxifen-induced EEC mitosis. […] Mice were then sacrificed to harvest uterus and liver. Uterine and liver tissues were fixed.
(§7) The tissue of mice was excised by surgery and fixed using 4% paraformaldehyde in 1×DPBS (Beijing Solar Bioscience & Technology co., Ltd). Paraffin section preparation and HE staining was performed by GLP laboratory of BK animal model, Inc.
EEC height was measured from 20-200× magnification EEC images of Paraffin-embedded H&E mice uterus sections.

The subject of a further data set is mouse liver. The method, then:
as §6, §7
30-50 mg of mouse liver was excised by surgery and homogenized in 1 ml Cholroform:Methanol (2:1) mixture and extracted using 0.5 ml ddH2O. The organic phase was transferred to new tubes and air dried. The amount of TG was measured using kits following manufacturer's instructions. The error was corrected by using internal standard controls.

The test system of data set [6] is endometrial epithelial cell (EEC). As to conditions: earlier finding of the applicants, no method given here (cf. reference 21); cited from earlier work.
[7] abbreviates: combination with equal amount of anastrozole, micro-CT.
Where [8] appears, read: mice, food containing drug plus tamoxifen, 6 months.

“Also recorded” adds a separate entry of the source.

`C#C[C@@]1(OC(=O)CC)CC2CCC3C(CC[C@@]4(C)C3CC[C@]4(C#C)OC(=O)CC)[C@@]2(C)C1` (single isomer, unassigned) [α-anordrin, (2α,17α)-diethynyl-(2β, 17β)-diol-dipropionate-A-nor-5α-androstane]: in the data set on OVX female mice [1], the “amount of liver TG (liver H&E section and statistical analysis)” value is recorded as “decreased the amount of liver TG; also recorded: dosage dependent activity to prevent TG accumulation in liver”. In the data set on mice bone (setting [7]), the “inhibition of anastrozole-induced decrease of BV/TV” value is given as “inhibits anastrozole-induced the ratio decreasing of bone volume (BV)/bone trabecular volume (TV) (BV/TV)”, the “inhibition of anastrozole-induced decrease of bone trabecula number (Tb.N)” value is “inhibits anastrozole-induced the decreasing of bone trabecula number (Tb.N)” and the “inhibition of anastrozole-induced loss of bone mean density (BMD)” value was “inhibits anastrozole-induced the loss of bone mean density (BMD)”. In the data set on mice bone, the “inhibition of anastrozole-induced osteoporosis (micro-CT)” value is “inhibited anastrozole-induced osteoporosis; also recorded: inhibits anastrozole-induced osteoporosis in bone”. Moreover, the “prevention of uterus atrophy” value with OVX female mice [2] (OVX female mice, lower dosage, compared with sham group) is “did not prevent the uterus atrophy”. The “atrophy symptom in uterus” value in the data set on OVX female mice [2] (OVX mice, given by food) was “less atrophy symptom in uterus compared with those mice treated by β-anordrin and blank groups”. The “inhibition of anastrozole-induced vagina atrophy (vagina wet mass, H&E sections)” value with mouse vagina is listed as “inhibits anastrozole-induced vagina atrophy”. For the same compound, the “prevention of vulvovagina atrophy (uterus and vagina wet mass and H&E staining)” value with OVX female mice [3] is given as “prevented vulvovagina atrophy; also recorded: dosage dependent activity to prevent the atrophy of vulvovagina”. The body mass result with OVX female mice [4] (after administration of drugs by food) was “less and dosage dependent activity to decrease”. In the data set on OVX female mice [4] (given by food), the blood glucose result was “less and dosage dependent activity to decrease”; the “blood triglyceride (TG)” value is “less and dosage dependent activity to decrease”. In addition, in the data set on OVX female mice [5] (OVX female mice, micro-CT), the “prevention of the decrease of bone volume (BV)/bone trabecula volume (TV) ratio (BV/TV)” value is “more activity to prevent the ratio decreasing of bone volume (BV)/bone trabecula volume (TV) (BV/TV) compared with β-anordrin” and the “prevention of the loss of bone mean density (BMD)” value is “more activity to prevent the loss of bone mean density (BMD) compared with β-anordrin”. Further, in the data set on OVX female mice [5], the “prevention of osteoporosis (micro-CT)” value is “prevented osteoporosis; also recorded: more actively to prevent the osteoporosis compared with β-anordrin”.
Consider `CC/C(=C(\c1ccccc1)c1ccc(OCCN(C)C)cc1)c1ccccc1` [TAM, tamoxifen, reference compound], for which the “appearance of EECs in H&E staining sections” value with mice uterus EECs (mouse, in vivo) is “rough and mitotic”. Moreover, the “fatty deposition in liver cells (H&E staining sections)” value with mouse liver (mouse, in vivo) is reported as “high fatty deposition in liver cells”.
On to `C#C[C@@]1(OC(=O)CC)C[C@@H]2CC[C@@H]3[C@H](CC[C@@]4(C)[C@H]3CC[C@]4(C#C)OC(=O)CC)[C@@]2(C)C1` [anordrin], for which, in data set [6], the “elimination of tamoxifen-induced endometrial epithelial cell (EEC) mitosis” value is recorded as “can eliminate tamoxifen-induced endometrial epithelial cell (EEC) mitosis”.
As to `C#C[C@]1(OC(=O)CC)C[C@@H]2CC[C@@H]3[C@H](CC[C@@]4(C)[C@H]3CC[C@]4(C#C)OC(=O)CC)[C@@]2(C)C1` [β-anordrin, (2β,17α)-diethynyl-(2α,17β)-diol-dipropionate-A-nor-5α-androstane, reference compound], in the data set with OVX female mice [1], the “amount of liver TG (liver H&E section and statistical analysis)” value was “not β-anordrin decreased the amount of liver TG”. Besides, the “inhibition of anastrozole-induced osteoporosis (micro-CT)” value in the data set on mice bone is listed as “not β-anordrin inhibited anastrozole-induced osteoporosis”. In addition, in the data set on mouse vagina, the “inhibition of anastrozole-induced vagina atrophy (vagina wet mass, H&E sections)” value is reported as “not β-anordrin inhibited anastrozole-induced vagina atrophy”. Further, in the data set on OVX female mice [3], the “prevention of vulvovagina atrophy (uterus and vagina wet mass and H&E staining)” value is listed as “not β-anordrin prevented vulvovagina atrophy”. Moreover, the “inhibition of tamoxifen-induced EEC mitosis” value with mice uterus EECs (setting [8]) is “not β-anordrin inhibited tamoxifen-induced EEC mitosis”. In addition, in the data set on mouse liver (setting [8]), the “inhibition of tamoxifen-induced NASH” value was “not β-anordrin inhibited”. For the same compound, the “prevention of osteoporosis (micro-CT)” value in the data set with OVX female mice [5] was “not 3-anordrin prevented osteoporosis”.
